US7608615B2, “Pyrrolo[2,1-C][1,4]benzodiazepine hybrids and a process for the preparation thereof” (Council of Scientific & Industrial Research, priority 2006, dated 2009)

Experiments:
Assay type in all cases: cell-based, human
SiHa = assay: in vitro cytotoxicity, SiHa cervix cancer cells; conditions: for percentage cell growth (Activity status in terms of IC50 values) SiHa Cervix: 48 h continuous drug exposure, percent of cell growth relative to untreated control cells; for suppressing the SiHa cell growth: suppression of cell growth, 48 h exposure
Protocol: (§1) Cytotoxicity: The compounds 7-methoxy-8-[3-(6-chloro-2-oxo-4-phenyl-1,2-dihydro-1-quinazolinyl)propoxy]-(11aS)-1,2,3,11a-tetrahydro-5H-pyrrolo[2,1-c][1,4]benzodiazepine-5-one and 7-methoxy-8-[5-(6-chloro-2-oxo-4-phenyl-1,2-dihydro-1-quinazolinyl)pentyloxy]-(11aS)-1,2,3,11a-tetrahydro-5H-pyrrolo [2,1-c][1,4]benzodiazepine-5-one were evaluated for in vitro anticancer activity against nine human tumour cells derived from six cancer types (colon, prostate, oral, lung, cervix and breast cancer) as shown in (Table 1).
(§2) Compounds 5d and 5f have been evaluated for their in vitro cytotoxicity in selected human cancer cell lines of colon (Colo205), lung (Hop-62), cervix (SiHa), prostate (DU145, PC3), oral (DWD, HT1080), and breast (MCF7, Zr-75-1) origin. A protocol of 48 h continuous drug exposure and an […] protein assay has been used to estimate cell viability or growth. The results are expressed as percent of cell growth determined relative to that of untreated control cells (Table 1).

Colo205 = assay: in vitro cytotoxicity, Colo205 colon cancer cells; conditions: for percentage cell growth (Activity status in terms of IC50 values) Colo205 Colon: 48 h continuous drug exposure, percent of cell growth relative to untreated control cells; for suppress Colo205 cell growth: suppression of cell growth, 48 h exposure
Protocol: as §1, §2

Zr-75-1 = assay: in vitro cytotoxicity, Zr-75-1 breast cancer cells; conditions: for percentage cell growth (Activity status in terms of IC50 values) Zr-75-1 Breast: 48 h continuous drug exposure, percent of cell growth relative to untreated control cells; for suppressing Zr-25-1 cell growth: suppression of cell growth, 48 h exposure
Protocol: as §1, §2

PC3 = assay: in vitro cytotoxicity, PC3 prostate cancer cells; conditions: for percentage cell growth (Activity status in terms of IC50 values) PC3 Prostate: 48 h continuous drug exposure, percent of cell growth relative to untreated control cells; for suppress PC3 cell growth: suppression of cell growth, 48 h exposure
Protocol: as §1, §2

HT1080 = assay: in vitro cytotoxicity, HT1080 oral cancer cells; conditions: for percentage cell growth (Activity status in terms of IC50 values) HT1080 Oral: 48 h continuous drug exposure, percent of cell growth relative to untreated control cells; for suppress HT1080 cell growth: suppression of cell growth, 48 h exposure
Protocol: as §1, §2

MCF7 = assay: in vitro cytotoxicity, MCF7 breast cancer cells; conditions: for percentage cell growth (Activity status in terms of IC50 values) MCF7 Breast: 48 h continuous drug exposure, percent of cell growth relative to untreated control cells; for suppress MCF7 cell growth: suppression of cell growth, 48 h exposure
Protocol: as §1, §2

DWD = assay: in vitro cytotoxicity, DWD oral cancer cells; conditions: for percentage cell growth (Activity status in terms of IC50 values) DWD Oral: 48 h continuous drug exposure, percent of cell growth relative to untreated control cells; for suppress DWD cell growth: suppression of cell growth, 48 h exposure
Protocol: as §1, §2

Hop62 = assay: in vitro cytotoxicity, Hop62 lung cancer cells; conditions: for percentage cell growth (Activity status in terms of IC50 values) Hop62 Lung: 48 h continuous drug exposure, percent of cell growth relative to untreated control cells; for suppress Hop62 cell growth: suppression of cell growth, 48 h exposure
Protocol: as §1, §2

DU145 = assay: in vitro cytotoxicity, DU145 prostate cancer cells; conditions: for percentage cell growth (Activity status in terms of IC50 values) DU145 Prostate: 48 h continuous drug exposure, percent of cell growth relative to untreated control cells; for suppress DU145 cell growth: suppression of cell growth, 48 h exposure
Protocol: as §1, §2

`COc1cccc2c1C(=O)c1c(O)c3c(c(O)c1C2=O)C[C@@](O)(C(=O)CO)C[C@@H]3O[C@H]1C[C@H](N)[C@H](O)[C@H](C)O1` [ADR, adriamycin, reference compound] was tested, and the “percentage cell growth (Activity status in terms of IC50 values) SiHa Cervix” value (SiHa) was 5%, the “percentage cell growth (Activity status in terms of IC50 values) Colo205 Colon” value (Colo205) was 5% and the “percentage cell growth (Activity status in terms of IC50 values) Zr-75-1 Breast” value (Zr-75-1) was 5%. The “percentage cell growth (Activity status in terms of IC50 values) PC3 Prostate” value (PC3) was 5%, the “percentage cell growth (Activity status in terms of IC50 values) HT1080 Oral” value (HT1080) was 4% and the “percentage cell growth (Activity status in terms of IC50 values) MCF7 Breast” value (MCF7) was 5%. The “percentage cell growth (Activity status in terms of IC50 values) DWD Oral” value (DWD) was 2%, the “percentage cell growth (Activity status in terms of IC50 values) Hop62 Lung” value (Hop62) was 5% and the “percentage cell growth (Activity status in terms of IC50 values) DU145 Prostate” value (DU145) was 6%.

With `COc1cc2c(cc1OCCCCCn1c(=O)nc(-c3ccccc3)c3cc(Cl)ccc31)N=C[C@@H]1CCCN1C2=O` [Compound 5f, 7-Methoxy-8-[5-(6-chloro-2-oxo-4-phenyl-1,2-dihydro-1-quinazolinyl)pentyloxy]-(11aS)-1,2,3,11a-tetrahydro-5H-pyrrolo[2,1-c][1,4]benzodiazepine-5-one] the “percentage cell growth (Activity status in terms of IC50 values) SiHa Cervix” value (SiHa) was 16%, the “suppressing the SiHa cell growth” value (SiHa) was 84% and the “percentage cell growth (Activity status in terms of IC50 values) Colo205 Colon” value (Colo205) was 15%. For the same compound, the “suppress Colo205 cell growth” value (Colo205) was 85%, the “percentage cell growth (Activity status in terms of IC50 values) Zr-75-1 Breast” value (Zr-75-1) was 8% and the “suppressing Zr-25-1 cell growth” value (Zr-75-1) was 92%. For the same compound, the “percentage cell growth (Activity status in terms of IC50 values) PC3 Prostate” value (PC3) was 7%, the “suppress PC3 cell growth” value (PC3) was 93% and the “percentage cell growth (Activity status in terms of IC50 values) HT1080 Oral” value (HT1080) was 8%. For the same compound, the “suppress HT1080 cell growth” value (HT1080) was 92%, the “percentage cell growth (Activity status in terms of IC50 values) MCF7 Breast” value (MCF7) was 8% and the “suppress MCF7 cell growth” value (MCF7) was 92%. For the same compound, the “percentage cell growth (Activity status in terms of IC50 values) DWD Oral” value (DWD) was 5%, the “suppress DWD cell growth” value (DWD) was 95% and the “percentage cell growth (Activity status in terms of IC50 values) Hop62 Lung” value (Hop62) was 5%. The “suppress Hop62 cell growth” value (Hop62) was 95%, the “percentage cell growth (Activity status in terms of IC50 values) DU145 Prostate” value (DU145) was 10% and the “suppress DU145 cell growth” value (DU145) was 90%.

In the case of `COc1cc2c(cc1OCCCn1c(=O)nc(-c3ccccc3)c3cc(Cl)ccc31)N=C[C@@H]1CCCN1C2=O` [Compound 5d, 7-Methoxy-8-[3-(6-chloro-2-oxo-4-phenyl-1,2-dihydro-1-quinazolinyl)propoxy]-(11aS)-1,2,3,11a-tetrahydro-5H-pyrrolo[2,1-c][1,4]benzodiazepine-5-one], the “percentage cell growth (Activity status in terms of IC50 values) SiHa Cervix” value (SiHa) is reported as 16%, the “suppressing the SiHa cell growth” value (SiHa) is reported as 84% and the “percentage cell growth (Activity status in terms of IC50 values) Colo205 Colon” value (Colo205) is reported as 8%. The “suppress Colo205 cell growth” value (Colo205) was 92%, the “percentage cell growth (Activity status in terms of IC50 values) Zr-75-1 Breast” value (Zr-75-1) was 8% and the “suppressing Zr-25-1 cell growth” value (Zr-75-1) was 92%. For the same compound, the “percentage cell growth (Activity status in terms of IC50 values) PC3 Prostate” value (PC3) was 11%, the “suppress PC3 cell growth” value (PC3) was 89% and the “percentage cell growth (Activity status in terms of IC50 values) HT1080 Oral” value (HT1080) was 9%. The “suppress HT1080 cell growth” value (HT1080) was 91%, the “percentage cell growth (Activity status in terms of IC50 values) MCF7 Breast” value (MCF7) was 12% and the “suppress MCF7 cell growth” value (MCF7) was 88%. The “percentage cell growth (Activity status in terms of IC50 values) DWD Oral” value (DWD) was 5%, the “suppress DWD cell growth” value (DWD) was 95% and the “percentage cell growth (Activity status in terms of IC50 values) Hop62 Lung” value (Hop62) was 6%. The “suppress Hop62 cell growth” value (Hop62) was 94%, the “percentage cell growth (Activity status in terms of IC50 values) DU145 Prostate” value (DU145) was 8% and the “suppress DU145 cell growth” value (DU145) was 92%.
